molecular target: Human STING (Homo sapiens, UniProt Q86WV6, G230A/H232R/R293Q/R71H); experiment: Reporter gene assay, human STING agonist activity, THP1-Dual cells (HAQ-mutated), IRF pathway; details: THP1-Dual cells IRF EC50, THP1-Dual cells (HAQ-mutated), 24 hours; 100% = maximum count with ML-RR-CDA·2Na+
Sequence (Q86WV6 whole entry R71H/G230A/H232R/R293Q): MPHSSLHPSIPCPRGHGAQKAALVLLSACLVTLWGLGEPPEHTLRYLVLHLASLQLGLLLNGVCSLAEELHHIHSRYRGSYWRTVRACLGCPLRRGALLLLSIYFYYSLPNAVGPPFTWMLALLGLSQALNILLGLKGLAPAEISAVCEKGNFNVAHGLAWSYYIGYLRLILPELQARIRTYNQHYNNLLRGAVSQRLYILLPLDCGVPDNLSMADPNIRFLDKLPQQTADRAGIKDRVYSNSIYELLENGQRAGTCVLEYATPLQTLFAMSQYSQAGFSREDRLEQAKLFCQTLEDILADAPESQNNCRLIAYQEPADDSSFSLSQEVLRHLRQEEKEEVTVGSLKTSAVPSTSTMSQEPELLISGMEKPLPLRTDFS
Method: Human STING agonist activity was evaluated by using THP1-Dual™ cells (HAQ-mutated) (InvivoGen, CA, US), with which the activation of the pathway of interferon regulatory factor-3 (IRF3), which is present in the downstream of the STING pathway, can be confirmed.
Assay was performed as follows. First, a test compound diluted with PBS was aliquoted into a transparent 96-well plate (Corning Incorporated, NY, US) at 20 μL/well. Subsequently, reporter cells suspended in assay buffer (an RPMI1640 medium or DMEM medium containing 10% bovine serum albumin) were added at 180 μL/well (1×10^5 cells/well) to initiate stimulation. After the cells were cultured in an environment at 37° C. and 5% CO2 for 24 hours, the resultant was centrifuged to collect the supernatant. To a white 384-well plate, 6 μL of the supernatant collected was added, and 15 μL of QUANTI-Luc (InvivoGen) solution was added thereto. After the resultant was well mixed together, emission was measured by using a plate reader (PerkinElmer, Inc., MA, US).

| EC50 | Compound |
| --- | --- |
| 350 nM | O=c1c2ncn([C@@H]3O[C@@H]4COP(=O)(S)O[C@H]5[C@@H](F)[C@H](n6cc7c8c(ncnc86)NCCC7)O[C@@H]5COP(=O)(S)O[C@@H]3[C@@H]4F)c2ncn1CCO (single isomer, unassigned) [44b] |
| 300 nM | Nc1ncnc2c1ncn2[C@@H]1O[C@@H]2COP(=O)(S)O[C@H]3[C@@H](O)[C@H](n4cc5c6c(ncnc64)NCCC5)O[C@@H]3COP(=O)(S)O[C@@H]1[C@@H]2O (single isomer, unassigned) [1b] |
| 2100 nM | O=c1c2ncn([C@@H]3O[C@@H]4COP(=O)(S)O[C@H]5[C@@H](O)[C@H](n6cc7c8c(ncnc86)NCCC7)O[C@@H]5COP(=O)(S)O[C@@H]3[C@@H]4O)c2ncn1CCO (single isomer, unassigned) [6b] |
| 1100 nM | O=C(CO)NCCn1cnc2c(ncn2[C@@H]2O[C@@H]3COP(=O)(S)O[C@H]4[C@@H](O)[C@H](n5cc6c7c(ncnc75)NCCC6)O[C@@H]4COP(=O)(S)O[C@@H]2[C@@H]3F)c1=O (single isomer, unassigned) [41a] |
| 400 nM | Nc1ncnc2c1ncn2[C@@H]1O[C@@H]2COP(=O)(S)O[C@H]3[C@@H](O)[C@H](n4cc5c6c(ncnc64)OCCC5)O[C@@H]3COP(=O)(S)O[C@@H]1[C@@H]2O (single isomer, unassigned) [20b] |
| 330 nM | NCCn1cnc2c(ncn2[C@@H]2O[C@@H]3COP(=O)(S)O[C@H]4[C@@H](F)[C@H](n5cc6c7c(ncnc75)SCCC6)O[C@@H]4COP(=O)(S)O[C@@H]2[C@@H]3O)c1=O (single isomer, unassigned) [49a] |
| 700 nM | Nc1ncnc2c1ncn2[C@@H]1O[C@@H]2COP(=O)(S)O[C@H]3[C@@H](O)[C@H](n4cc5c6c(ncnc64)OCCC5)O[C@@H]3COP(=O)(S)O[C@@H]1[C@@H]2O (single isomer, unassigned) [21b] |
| 6400 nM | O=c1c2ncn([C@@H]3O[C@@H]4COP(=O)(S)O[C@H]5C[C@H](n6cc7c8c(ncnc86)NCCC7)O[C@@H]5COP(=O)(S)O[C@@H]3[C@@H]4O)c2ncn1CCO (single isomer, unassigned) [32b] |
| 1400 nM | O=c1c2ncn([C@@H]3O[C@@H]4COP(=O)(S)O[C@H]5[C@@H](O)[C@H](n6cc7c8c(ncnc86)NCCC7)O[C@@H]5COP(=O)(S)O[C@@H]3[C@@H]4O)c2ncn1CCCO (single isomer, unassigned) [26a] |
| 3600 nM | O=C(CO)NCCn1cnc2c(ncn2[C@@H]2O[C@@H]3COP(=O)(S)O[C@H]4[C@@H](O)[C@H](n5cc6c7c(ncnc75)NCCC6)O[C@@H]4COP(=O)(S)O[C@@H]2[C@@H]3F)c1=O (single isomer, unassigned) [41b] |
| 1800 nM | Nc1nc(CO)nc2c1ncn2[C@@H]1O[C@@H]2COP(=O)(S)O[C@H]3[C@@H](O)[C@H](n4cc5c6c(ncnc64)NCCC5)O[C@@H]3COP(=O)(S)O[C@@H]1[C@@H]2O (single isomer, unassigned) [12b] |
| 1600 nM | O=c1c2ncn([C@@H]3O[C@@H]4COP(=O)(S)O[C@H]5[C@@H](O)[C@H](n6cc7c8c(ncnc86)NCCC7)O[C@@H]5COP(=O)(S)O[C@@H]3C4)c2ncn1CCO (single isomer, unassigned) [38b] |
| 410 nM | O=c1c2ncn([C@@H]3O[C@@H]4COP(=O)(S)O[C@H]5[C@@H](O)[C@H](n6cc7c8c(ncnc86)NCCC7)O[C@@H]5COP(=O)(S)O[C@@H]3[C@@H]4F)c2ncn1CCO (single isomer, unassigned) [39b] |
| 3200 nM | NCCn1cnc2c(ncn2[C@@H]2O[C@@H]3COP(=O)(S)O[C@H]4[C@@H](O)[C@H](n5cc6c7c(ncnc75)NCCC6)O[C@@H]4COP(=O)(S)O[C@@H]2[C@@H]3F)c1=O (single isomer, unassigned) [40b] |
| 4700 nM | Nc1ncnc2c1ncn2[C@@H]1O[C@@H]2COP(=O)(S)O[C@H]3[C@@H](O)[C@H](n4cc5c6c(ncnc64)NCCC5)O[C@@H]3COP(=O)(S)O[C@@H]1[C@@H]2O (single isomer, unassigned) [2a] |
| 5700 nM | Nc1nc(NCCO)nc2c1ncn2[C@@H]1O[C@@H]2COP(=O)(S)O[C@H]3[C@@H](O)[C@H](n4cc5c6c(ncnc64)NCCC5)O[C@@H]3COP(=O)(S)O[C@@H]1[C@@H]2O (single isomer, unassigned) [9a] |

| EC50 | Compound |
| --- | --- |
| 580 nM | Nc1ncnc2c1ncn2[C@@H]1O[C@@H]2COP(=O)(S)O[C@H]3[C@@H](O)[C@H](n4cc5c6c(ncnc64)NCCC5)O[C@@H]3COP(=O)(S)O[C@@H]1[C@@H]2O (stereo partly drawn) [47a, Disodium (2S,5R,7R,8R,12aR,14R,15R,15aS,16R)-7-(6-amino-9H-purin-9-yl)-15,16-dihydroxy-2-oxo-10-sulfanylidene-14-(6,7,8,9-tetrahydro-2H-2,3,5,6-tetraazabenzo[cd]azulen-2-yl)octahydro-2H,10H,12H-5,8-methano-2λ^5,10λ^5-furo[3,2-1][1,3,6,9,11,2,10]pentaoxadiphosphacyclotetradecine-2,10-bis(thiolate)] |
| 320 nM | NCCNc1nc(N)c2ncn([C@@H]3O[C@@H]4COP(=O)(S)O[C@H]5[C@@H](F)[C@H](n6cc7c8c(ncnc86)SCCC7)O[C@@H]5COP(=O)(S)O[C@@H]3[C@@H]4F)c2n1 (single isomer, unassigned) [51a] |
| 460 nM | O=c1c2ncn([C@@H]3O[C@@H]4COP(=O)(O)O[C@H]5[C@@H](F)[C@H](n6cc7c8c(ncnc86)NCCC7)O[C@@H]5COP(=O)(S)O[C@@H]3[C@@H]4O)c2ncn1CCO (single isomer, unassigned) [52b] |
| 200 nM | O=C(CO)NCCn1cnc2c(ncn2[C@@H]2O[C@@H]3COP(=O)(S)O[C@H]4[C@@H](F)[C@H](n5cc6c7c(ncnc75)SCCC6)O[C@@H]4COP(=O)(S)O[C@@H]2[C@@H]3O)c1=O (single isomer, unassigned) [50b] |
| 450 nM | O=c1c2ncn([C@@H]3O[C@@H]4COP(=O)(S)O[C@H]5[C@@H](O)[C@H](n6cc7c8c(ncnc86)NCCC7)O[C@@H]5COP(=O)(S)O[C@@H]3C4)c2ncn1CCO (single isomer, unassigned) [38a] |
| 39 nM | O=c1c2ncn([C@@H]3O[C@@H]4COP(=O)(S)O[C@H]5[C@@H](F)[C@H](n6cc7c8c(ncnc86)SCCC7)O[C@@H]5COP(=O)(S)O[C@@H]3[C@@H]4O)c2ncn1CCO (single isomer, unassigned) [48b] |
| 4000 nM | NCc1nc(N)c2ncn([C@@H]3O[C@@H]4COP(=O)(S)O[C@H]5[C@@H](O)[C@H](n6cc7c8c(ncnc86)NCCC7)O[C@@H]5COP(=O)(S)O[C@@H]3[C@@H]4O)c2n1 (single isomer, unassigned) [11a] |
| 1200 nM | O=c1c2ncn([C@@H]3O[C@@H]4COP(=O)(S)O[C@H]5C[C@H](n6cc7c8c(ncnc86)NCCC7)O[C@@H]5COP(=O)(S)O[C@@H]3[C@@H]4O)c2ncn1CCO (single isomer, unassigned) [32a] |
| 4300 nM | C[C@H]1CCc2cn([C@@H]3O[C@@H]4COP(=O)(S)O[C@@H]5[C@H](O)[C@@H](COP(=O)(S)O[C@H]4[C@H]3O)O[C@H]5n3cnc4c(N)ncnc43)c3ncnc(c23)O1 (single isomer, unassigned) [22b] |
| 180 nM | O=c1c2ncn([C@@H]3O[C@@H]4COP(=O)(S)O[C@H]5[C@H](F)[C@H](n6cc7c8c(ncnc86)NCCC7)O[C@@H]5COP(=O)(S)O[C@@H]3[C@@H]4O)c2ncn1CCO (single isomer, unassigned) [33a] |
| 3400 nM | NCCn1cnc2c(ncn2[C@@H]2O[C@@H]3COP(=O)(S)O[C@H]4[C@@H](O)[C@H](n5cc6c7c(ncnc75)NCCC6)O[C@@H]4COP(=O)(S)O[C@@H]2[C@@H]3F)c1=O (single isomer, unassigned) [40a] |
| 550 nM | O=c1c2ncn([C@@H]3O[C@@H]4COP(=O)(S)O[C@H]5[C@@H](F)[C@H](n6cc7c8c(ncnc86)NCCC7)O[C@@H]5COP(=O)(S)O[C@@H]3[C@@H]4O)c2ncn1CCO (single isomer, unassigned) [34b] |
| 6300 nM | CC(C)(N)CNc1nc(N)c2ncn([C@@H]3O[C@@H]4COP(=O)(S)O[C@H]5[C@@H](O)[C@H](n6cc7c8c(ncnc86)NCCC7)O[C@@H]5COP(=O)(S)O[C@@H]3[C@@H]4O)c2n1 (single isomer, unassigned) [10a] |
| 55 nM | Nc1ncnc2c1ncn2[C@@H]1O[C@@H]2COP(=O)(S)O[C@H]3[C@@H](O)[C@H](n4cc5c6c(ncnc64)SCCC5)O[C@@H]3COP(=O)(S)O[C@@H]1[C@@H]2O (single isomer, unassigned) [23b] |
| 2400 nM | NCCn1cnc2c(ncn2[C@@H]2O[C@@H]3COP(=O)(S)O[C@H]4[C@@H](O)[C@H](n5cc6c7c(ncnc75)NCCC6)O[C@@H]4COP(=O)(S)O[C@@H]2[C@@H]3O)c1=O (single isomer, unassigned) [5a] |

same assay, conditions: read-out: THP1-Dual cells IRF EC50; THP1-Dual cells (HAQ-mutated), 24 hours; 100% = maximum count with ML-RR-CDA·2Na+

| EC50 | Compound |
| --- | --- |
| 3900 nM | Nc1ncnc2c1ncn2[C@@H]1O[C@@H]2COP(=O)(S)O[C@@H]3[C@@H](COP(=O)(S)O[C@@H]1[C@@H]2O)C[C@@H](n1cc2c4c(ncnc41)NCCC2)[C@@H]3O (single isomer, unassigned) [46a] |
| 870 nM | Nc1ncnc2c1ncn2[C@@H]1O[C@@H]2COP(=O)(S)O[C@@H]3[C@@H](COP(=O)(S)O[C@@H]1[C@@H]2O)C[C@@H](n1cc2c4c(ncnc41)NCCC2)[C@@H]3O (single isomer, unassigned) [46b] |

molecular target: T1, HisAviTEV-hSTING (139-342) human wild-type protein (Homo sapiens, UniProt Q86WV6, H232R); experiment: Protein thermal shift assay, STING C-terminal binding domain protein; details: test compound final concentration 0.5 mM
T1 construct: made in house; host or cells: E. coli Rosetta 2 (DE3), co-expressed with BirA (1-321)
T1 sequence (Q86WV6 with tags, fused parts or gaps H232R): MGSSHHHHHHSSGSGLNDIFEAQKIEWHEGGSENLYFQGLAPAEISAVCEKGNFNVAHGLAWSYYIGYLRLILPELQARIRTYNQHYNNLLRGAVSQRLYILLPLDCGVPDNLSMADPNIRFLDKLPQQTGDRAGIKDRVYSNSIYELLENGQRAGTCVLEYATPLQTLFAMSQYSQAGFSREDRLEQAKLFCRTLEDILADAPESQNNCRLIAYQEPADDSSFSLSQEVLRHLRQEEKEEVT

| ΔTm Hu-WT | Compound |
| --- | --- |
| 12.3 °C | O=C(CO)NCCn1cnc2c(ncn2[C@@H]2O[C@@H]3COP(=O)(S)O[C@H]4[C@@H](F)[C@H](n5cc6c7c(ncnc75)SCCC6)O[C@@H]4COP(=O)(S)O[C@@H]2[C@@H]3O)c1=O (single isomer, unassigned) [50b] |

Source: patent publication US12370263B2, “Cyclic dinucleotide derivative based antibody-drug conjugates” (DAIICHI SANKYO COMPANY, LIMITED, priority 2018, dated 2025)
